In experiment [1] the test system is IL-1β. In words: Inflammatory cytokine IL-1β in hippocampus (ELISA). Type of experiment: in vivo, mouse. The settings on record: Donepezil 1 mg/kg oral, scopolamine, mean ± standard error, hydrochloride. The protocol:
(§1) On the next day of the end of the passive avoidance test, the test material was administered, and the objects were allowed to stand in a home cage for 30 minutes. Subsequently, Scopolamine was intraperitoneally administered at a dose of 1 mg/kg, and then the objects were allowed to stand in a home cage for 30 minutes.
(§2) A brain tissue was separately separated and stored at −70° C. until analysis.
(§3) Inflammatory cytokine in a brain tissue was measured with a supernatant liquid obtained by adding a tissue protein extraction reagent (Biovision, CA, USA) to a brain tissue, crushing it, and centrifuging it, using an ELISA Kit (R&D System, MN, USA).

Experiment [2] relates to acetylcholine. Kind of experiment: Acetylcholine content in hippocampus after passive avoidance test. Type of experiment: in vivo, mouse. The settings on record: Donepezil 1 mg/kg oral, scopolamine, mean ± standard error, hydrochloride. The protocol: as §1, §2
A choline assay buffer (Biovision, CA, USA) was added to a hippocampal tissue of the separated brain, crushed, and then centrifuged to obtain a supernatant liquid, which was used in the test.
The amount of acetylcholine in the supernatant liquid was measured using a choline/acetylcholine quantification kit (Biovision, CA, USA).

Experiment [3] concerns TNF-α. Kind of experiment: Inflammatory cytokine TNF-α in hippocampus (ELISA). The settings on record: Donepezil 1 mg/kg oral, scopolamine, mean ± standard error, hydrochloride. Type of experiment: in vivo, mouse. Here is the method:
as §1, §2, §3

Experiment [4] relates to ICR mouse. Kind of experiment: Passive avoidance test in scopolamine-treated mice. In kind it is in vivo. To be noted: Donepezil 1 mg/kg oral; scopolamine i.p.; mean ± standard error; hydrochloride. Here is the method:
Each material prepared in the preparation example was prepared so that each may be orally administered to 7 experimental groups in the following and Table 1.
In the following Table 1, only the excipient prepared in the preparation examples was orally administered to a normal control group and a negative control group, respectively, scopolamine was administered to the remaining experimental groups (G2-G7) other than the normal control group (G1) in the behavioral experiment of Test Example 4 to cause cognitive function decline and a memory impairment effect, and then the behavior was observed.
After the test material (drug) of Test Example 3 was administered to each experimental group during the test, a passive avoidance test was performed, and change in mouse behavior was observed.
After each of the test materials was administered to each experimental group of Table 1 of Test Example 3, the passive avoidance test was performed on day 25 by the following procedure: • a) The object was put into an unlit white room of a conditioning box for the passive avoidance test, and then was adapted for 60 seconds. • b) A guillotine door was opened simultaneously with turning on a LED light of the white room, and the object was allowed to explore a dark room for 180 seconds for adaptation. • c) On the next day (day 26) also, the above process was performed and repeated once more, and the object was adapted so that it took around 30 seconds to enter the dark room after turning on the LED light. • d) After administering the drug 1 hour before learning on day 27, 4 mL/kg of Scopolamine which was dissolved at 0.25 mg/mL in a 0.9% saline solution was intraperitoneally administered to the objects of the remaining experimental groups other than the normal control group (G1), respectively, after 30 minutes, and the objects were allowed to stand for 30 minutes in the breeding box. • e) 30 minutes after administering Scopolamine, the objects were put into the unlit white room, the guillotine door was opened simultaneously with turning on the LED light after 10 seconds. When all of the four legs of the objects entered to the dark room, the guillotine door was closed, the time spent (latency time) was measured with a timer, and electrical stimulation was given at 0.5 mA for 3 seconds.

Several values for one entry are separate records, joined by “and”; a condition that tells them apart may be missing. Equal values may be shown once. Where a name gives a salt, the structure may show the parent alone.

In the case of `COc1cc2c(cc1OC)C(=O)C(CC1CCN(Cc3ccccc3)CC1)C2` (stereo not shown) [Donepezil, Donepezil hydrochloride, reference compound], the IL-1β in experiment [1] was 160.9 pg/mg tissue protein and 160.9 ± 23.2 pg/mg tissue protein. Further, the Acetylcholine in experiment [2] was 1.8 Nmol/mg protein and 1.8 ± 0.2 Nmol/mg protein. In addition, the TNF-α in experiment [3] is 186.2 pg/mg tissue protein and 186.2 ± 30.3 pg/mg tissue protein. Also, the “Passive avoidance test Time taken (latency time)” value in experiment [4] was 45.6 s and 45.6 ± 14 s.

Values taken from patent US20240024261A1, “PHARMACEUTICAL COMPOSITION FOR IMPROVING COGNITIVE ABILITY OR ENHANCING MEMORY” (DR. RAYMOND LAB INC, priority 2020, published 2024).
